The record followed here is patent publication US8828985B2, “Carbamate and urea inhibitors of 11-beta-hydroxysteroid dehydrogenase 1” (Vitae Pharmaceuticals, Inc., priority 2008, dated 2014).

Structures are written as SMILES. Some results are limits rather than exact numbers.

The target in the test is human 11β-HSD1 (Homo sapiens, UniProt P28845). The experiment in a line: biochemical. The following applies: for inhibition at 0.1 µM / inhibition at 0.111 µM: 1.5 h; for inhibition at 0.1 µM: read-out: Biological Test Example 2 Average % inhibition at 100 nm, at 100 nm; for IC50: Biological Test Example 2 IC50 Range, microsomes from CHO cells overexpressing human 11β-HSD1, SPA; for inhibition at 0.111 µM: read-out: Biological Test Example 2 Average % inhibition at 111 nm, at 111 nm.
human 11β-HSD1, sequence (P28845 whole entry): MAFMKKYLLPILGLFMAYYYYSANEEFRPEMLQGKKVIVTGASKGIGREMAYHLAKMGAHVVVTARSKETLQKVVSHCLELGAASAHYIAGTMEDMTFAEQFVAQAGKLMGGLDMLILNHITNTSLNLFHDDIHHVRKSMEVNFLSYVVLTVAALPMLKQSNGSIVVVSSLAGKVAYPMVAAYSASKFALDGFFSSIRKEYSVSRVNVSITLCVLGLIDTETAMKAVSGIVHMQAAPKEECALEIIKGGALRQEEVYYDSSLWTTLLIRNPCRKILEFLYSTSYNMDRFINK

As to `CN(C)C(=O)c1cccnc1N[C@@H]1CCN(C(=O)O[C@H]2C3CC4CC2C[C@](O)(C4)C3)C1` [Example 89, (R)-(trans-1-hydroxy-4-adamantyl) 3-(3-(dimethylcarbamoyl)pyridin-2-ylamino)pyrrolidine-1-carboxylate], the inhibition at 0.1 µM was 39.1% and the IC50 is more than 100 nM.

As for `O=C(O)c1cnc(N[C@@H]2CCN(C(=O)O[C@H]3C4CC5CC3C[C@](O)(C5)C4)C2)nc1` [Example 108, 2-((R)-1-((trans-1-hydroxy-4-adamantyloxy)carbonyl)pyrrolidin-3-ylamino)pyrimidine-5-carboxylic acid], the inhibition at 0.1 µM amounted to 14.2% and the half-inhibitory concentration (IC50) is more than 100 nM.

On to `N#Cc1ccc(N[C@@H]2CCN(C(=O)OC3C4CC5CC3CC(C(=O)NC3CC3)(C5)C4)C2)nc1` (single isomer, unassigned) [Example 118 Isomer 1], for which the inhibition at 0.1 µM is 9.1% and the IC50 is more than 100 nM.

Turning to `CN(c1ccc(C(F)(F)F)cn1)C1CCN(C(=O)O[C@H]2C3CC4CC2C[C@](C(N)=O)(C4)C3)C1` (stereo partly drawn) [Example 43, (trans-1-carbamoyl-4-adamantyl) 3-(methyl(5-(trifluoromethyl)pyridin-2-yl)amino)pyrrolidine-1-carboxylate], the inhibition at 0.1 µM amounted to 102% and the half-maximal inhibitory concentration (IC50) was less than 100 nM.

On to `NC(=O)c1cnc(N[C@@H]2CCN(C(=O)O[C@H]3C4CC5CC3C[C@](O)(C5)C4)C2)nc1` [Example 109, (R)-(trans-1-hydroxy-4-adamantyl) 3-(5-carbamoylpyrimidin-2-ylamino)pyrrolidine-1-carboxylate], for which the inhibition at 0.1 µM is 50.1% and the IC50 was less than 100 nM.

Regarding `CC(C)OC(=O)N[C@@H]1CCN(C(=O)NC2C3CC4CC(C3)CC2C4)C1` (stereo partly drawn) [Example 49, (R)-isopropyl 1-((2-adamantyl)carbamoyl)pyrrolidin-3-ylcarbamate], the inhibition at 0.111 µM came to 74.6% and the concentration for half-maximal inhibition (IC50) is less than 100 nM.

As to `CN(C(=O)c1cccnc1N[C@@H]1CCN(C(=O)O[C@H]2C3CC4CC2C[C@](O)(C4)C3)C1)C(C)(C)C` [Example 100, (trans-1-hydroxy-4-adamantyl) 3-(3-(tert-butyl(methyl)carbamoyl)pyridin-2-ylamino)pyrrolidine-1-carboxylate], the inhibition at 0.1 µM worked out at 46.8% and the IC50 is less than 100 nM.

`CNC(=O)c1cc(Cl)cnc1N[C@@H]1CCN(C(=O)O[C@H]2C3CC4CC2C[C@](O)(C4)C3)C1` [Example 98, (R)-(trans-1-hydroxy-4-adamantyl) 3-(5-chloro-3-(methylcarbamoyl)pyridin-2-ylamino)pyrrolidine-1-carboxylate]: the inhibition at 0.1 µM is 91.1% and the IC50 was less than 100 nM.

Consider `N#Cc1ccc(N2CCC3CN(C(=O)O[C@H]4C5CC6CC4C[C@](C(N)=O)(C6)C5)CC32)nc1` (stereo partly drawn) [Example 76, (trans-1-carbamoyl-4-adamantyl) 1-(5-cyanopyridin-2-yl)hexahydropyrrolo[3,4-b]pyrrole-5(1H)-carboxylate], for which the inhibition at 0.1 µM was 97.9%, the inhibition at 0.111 µM came to 101% and the half-inhibitory concentration (IC50) was less than 100 nM.

Consider `O=C(NC1CC1)c1cc(Cl)cnc1N[C@@H]1CCN(C(=O)O[C@H]2C3CC4CC2C[C@](O)(C4)C3)C1` [Example 101, (R)-(trans-1-hydroxy-4-adamantyl) 3-(5-chloro-3-(cyclopropylcarbamoyl)pyridin-2-ylamino)pyrrolidine-1-carboxylate], for which the inhibition at 0.1 µM was found to be 82.6% and the IC50 was less than 100 nM.

Turning to `N#Cc1ccc(N[C@@H]2CCN(C(=O)O[C@H]3C4CC5CC3C[C@](O)(C5)C4)C2)cc1` [Example 78, (R)-(trans-1-hydroxy-4-adamantyl) 3-(4-cyanophenylamino)pyrrolidine-1-carboxylate], the inhibition at 0.1 µM came to 80.1% and the IC50 is less than 100 nM.

Regarding `NC(=O)c1cnc(N[C@@H]2CCN(C(=O)O[C@H]3C4CC5CC3C[C@](O)(C5)C4)C2)c(Cl)c1` [Example 92, (R)-(trans-1-hydroxy-4-adamantyl) 3-(5-carbamoyl-3-chloropyridin-2-ylamino)pyrrolidine-1-carboxylate], the inhibition at 0.1 µM is 60.2% and the IC50 was less than 100 nM.

In the case of `O=C(O[C@H]1C2CC3CC1C[C@](O)(C3)C2)N1CC[C@@H](Nc2cnc3cc(Cl)ccc3n2)C1` [Example 96, (R)-(trans-1-hydroxy-4-adamantyl) 3-(6-chloroquinoxalin-2-ylamino)pyrrolidine-1-carboxylate], the inhibition at 0.1 µM came out at 101% and the IC50 is less than 100 nM.

Regarding `N#Cc1cccnc1N[C@@H]1CCN(C(=O)O[C@H]2C3CC4CC2C[C@](C#N)(C4)C3)C1` [Example 73, (3R) (trans-1-cyano-4-adamantyl) 3-(3-cyanopyridin-2-ylamino)pyrrolidine-1-carboxylate], the inhibition at 0.1 µM stood at 94.6% and the IC50 was less than 100 nM.

On to `Cc1ccc(C#N)c(N[C@@H]2CCN(C(=O)O[C@H]3C4CC5CC3C[C@](O)(C5)C4)C2)n1` [Example 83, (R)-(trans-1-hydroxy-4-adamantyl) 3-(3-cyano-6-methylpyridin-2-ylamino)pyrrolidine-1-carboxylate], for which the inhibition at 0.1 µM came out at 98.5% and the IC50 is less than 100 nM.

`CN(c1ccc(C#N)cn1)C1CCN(C(=O)O[C@H]2C3CC4CC2C[C@](C(N)=O)(C4)C3)C1` (stereo partly drawn) [Example 74, (trans-1-carbamoyl-4-adamantyl) 3-((5-cyanopyridin-2-yl)(methyl)amino)pyrrolidine-1-carboxylate]: the inhibition at 0.1 µM is 97.8%, the inhibition at 0.111 µM was 96.5% and the IC50 is less than 100 nM.

In the case of `CN(C)C(=O)c1cnc(N[C@@H]2CCN(C(=O)O[C@H]3C4CC5CC3C[C@](O)(C5)C4)C2)nc1` [Example 111, (R)-(trans-1-hydroxy-4-adamantyl) 3-(5-(dimethylcarbamoyl)pyrimidin-2-ylamino)pyrrolidine-1-carboxylate], the inhibition at 0.1 µM is 33.5% and the IC50 was more than 100 nM.

Compound `N#Cc1cccnc1N[C@@H]1CCN(C(=O)O[C@H]2C3CC4CC2C[C@](O)(C4)C3)C1` [Example 80, (R)-(trans-1-hydroxy-4-adamantyl) 3-(3-cyanopyridin-2-ylamino)pyrrolidine-1-carboxylate] displayed a 50% inhibitory concentration (IC50) of less than 100 nM.

Turning to `Cc1cc(N[C@@H]2CCN(C(=O)O[C@H]3C4CC5CC3C[C@](C(N)=O)(C5)C4)C2)nc(C)n1` [Example 33, (R)-(trans-1-carbamoyl-4-adamantyl) 3-(2,6-dimethylpyrimidin-4-ylamino)pyrrolidine-1-carboxylate], the inhibition at 0.1 µM was 78.6% and the IC50 was less than 100 nM.

On to `N#Cc1ccc2nc(N[C@@H]3CCN(C(=O)O[C@H]4C5CC6CC4C[C@](O)(C6)C5)C3)ccc2c1` [Example 90, (R)-(trans-1-hydroxy-4-adamantyl) 3-(6-cyanoquinolin-2-ylamino)pyrrolidine-1-carboxylate], for which the inhibition at 0.1 µM was determined as 95.6% and the IC50 was less than 100 nM.

In the case of `N#Cc1ccc2nc(N[C@@H]3CCN(C(=O)O[C@H]4C5CC6CC4C[C@](O)(C6)C5)C3)cnc2c1` [Example 91, (R)-(trans-1-hydroxy-4-adamantyl) 3-(6-cyanoquinoxalin-2-ylamino)pyrrolidine-1-carboxylate], the inhibition at 0.1 µM was determined as 63.6% and the IC50 was less than 100 nM.

With `N#Cc1ccc(N[C@@H]2CCN(C(=O)O[C@H]3C4CC5CC3C[C@](C(N)=O)(C5)C4)C2)nn1` [Example 116, (R)-(trans-1-carbamoyl-4-adamantyl) 3-(6-cyanopyridazin-3-ylamino)pyrrolidine-1-carboxylate], the inhibition at 0.1 µM is 71.4% and the IC50 was less than 100 nM.

Consider `CC(C)(C)OC(=O)NC1(c2ccccc2)CCN(C(=O)NC2C3CC4CC(C3)CC2C4)C1` (stereo not drawn) [Example 60, tert-butyl 1-(2-adamantylcarbamoyl)-3-phenylpyrrolidin-3-ylcarbamate], for which the inhibition at 0.111 µM is 83.3% and the IC50 is less than 100 nM.

For `CN(c1cccc(C(F)(F)F)n1)C1CCN(C(=O)OC2C3CC4CC2CC(C(N)=O)(C4)C3)C1` (stereo not drawn) [Example 45, (trans-1-carbamoyl-4-adamantyl) 3-(methyl(6-(trifluoromethyl)pyridin-2-yl)amino)pyrrolidine-1-carboxylate], the inhibition at 0.1 µM is 97.7% and the IC50 was less than 100 nM.

`N#Cc1cnc(N[C@@H]2CCN(C(=O)O[C@H]3C4CC5C[C@@H]3C[C@](C(N)=O)(C5)C4)C2)s1` [Example 72, (3R) (1-carbamoyl-4-adamantyl) 3-(5-cyanothiazol-2-ylamino)pyrrolidine-1-carboxylate]: the inhibition at 0.1 µM was 97.3%, the inhibition at 0.111 µM stood at 97.3% and the half-maximal inhibitory concentration (IC50) is less than 100 nM.

On to `N#Cc1ccc(N[C@@H]2CCN(C(=O)O[C@H]3C4CC5CC3C[C@](C(N)=O)(C5)C4)C2)nc1` [Example 35, (R)-(trans-1-carbamoyl-4-adamantyl) 3-(5-cyanopyridin-2-ylamino)pyrrolidine-1-carboxylate], for which the inhibition at 0.1 µM amounted to 101% and the half-maximal inhibitory concentration (IC50) is less than 100 nM.

With `CN(C(=O)c1ccc(N[C@@H]2CCN(C(=O)O[C@H]3C4CC5CC3C[C@](O)(C5)C4)C2)nc1)C(C)(C)C` [Example 99, (trans-1-hydroxy-4-adamantyl) 3-(5-(tert-butyl(methyl)carbamoyl)pyridin-2-ylamino)pyrrolidine-1-carboxylate], the inhibition at 0.1 µM turned out to be 21.8% and the concentration for half-maximal inhibition (IC50) was more than 100 nM.

`CC(C)(C)NC(=O)c1cc(Cl)cnc1N[C@@H]1CCN(C(=O)O[C@H]2C3CC4CC2C[C@](O)(C4)C3)C1` [Example 102, (R)-(trans-1-hydroxy-4-adamantyl) 3-(3-(tert-butylcarbamoyl)-5-chloropyridin-2-ylamino)pyrrolidine-1-carboxylate]: the inhibition at 0.1 µM amounted to 78.7% and the IC50 is less than 100 nM.

For the compound `N#Cc1ccc2nc(N[C@@H]3CCN(C(=O)O[C@H]4C5CC6CC4C[C@](O)(C6)C5)C3)sc2c1` [Example 94, (R)-(trans-1-hydroxy-4-adamantyl) 3-(6-cyanobenzo[d]thiazol-2-ylamino)pyrrolidine-1-carboxylate], the inhibition at 0.1 µM stood at 90.8% and the half-maximal inhibitory concentration (IC50) is less than 100 nM.
